Results reported in patent publication US5462927A, “Peptides aiding nerve regeneration” (The Administrators of the Tulane Educational Fund, priority 1992, dated 1995).
Read-outs that look alike come from different tables or passages of the source. Square brackets hold non-standard residues; d marks the D form. Peptide text beside a SMILES is read from it.

Columns and labels:
[1] = test system: crushed peroneal nerve; endplates of the EDL; test: Endplate morphology of EDL muscle after peroneal nerve crush (silver-cholinesterase stain); assay type: in vivo, rat
Procedure: (§1) The effect of BIM-22015 regeneration of the crushed peroneal nerve in the rat was assessed using both morphological and physiological studies, as follows. Both locomotor pattern and endplate morphology during the early stages of crushed nerve regeneration were assessed after treatment with BIM-220150 Adult Sprague-Dawley male rats (Taconic Farms) were maintained at 25° C. on a 12 hour light and a 12 hour dark cycle and were supplied with standard rat chow and water ad lib. All surgery was performed under anesthesia with 8% chlorohydrate (0.6 ml/100 g I.P.). Denervation was accomplished using a #5 Dumont forceps with a uniformly filed tip to crush the peroneal nerve. This crush produced a 1 mm wide lesion just proximal to the EDL (extention digitarum longus) muscle. The wound was closed with surgical staples. Following surgery, the animal was immediately administered saline or BIM-22015 in one of the following dosages: (1) 0.9% saline, (2) 10.0 ug BIM-22015, (3) 5.0 ug BIM-22015, (3) 1.0 ug BIM-22015, or (4) 0.1 ug BIM-22015 (per animal). Administration continued once every 48 hours for 5 days; on day 5, the rats were killed and tissues taken for morphological analysis. All injections and surgeries occurred between 10:00 and 12:00 noon.
Morphological studies of crushed nerve regeneration were performed as follows. On day 5, the rats were anesthetized with 8% chlorohydrate (0.6 ml/100 g IP) before surgery. The animal was placed ventral side down and a skin incision was made on the hindlimb from the lateral epicondyle of the femur to the lateral malleolus in the ankle. The extensor digitorium longus muscle (EDL) was then carefully exposed from its surrounding connective tissue and extreme care taken to preserve the blood supply. The EDL is a heterogenous muscle consisting of both fast white muscle fibers and slow red muscle fibers. It is classified as a fast muscle based upon its isometric twitch parameters. The origin of the EDL is the epicondyle of the femur to the distal tendon which divides into four parts with insertions into the third phalange base of the second to the fifth digits. It is innervated by the peroneal nerve and its blood is supplied by the anterior tibial artery. The muscle was prepared for staining as follows.
The silver-cholinesterase method of staining of Pecot-Dechavssine et al. (1979 Stain. Technol. 54:25) was used to stain the endplates, or neuromuscular junctions, of the EDL. Briefly, the muscle was fixed in situ by 1% neutral formalin in normal Ringer's solution. The muscle was then excised and placed in fresh 1% neutral formalin solution for extra 3-4 minutes. The endplates were localized with the stain described by Karnovsky et al. (1964, J. Hist. Chem. Cytochem. 12:219) for 7-15 minutes under visual control. After localization, the EDL was soaked in 5% neutral formalin solution for 20 minutes, then washed in Triton X-100 detergent for 1 hour. After the detergent step, the EDL was fixed in 80% ethanol solution for 1 hour. Finally, the endplates were impregnated with silver using 0.5% protargol solution overnight (12-30 hrs., at 37° C.).
The following day, the excess silver was reduced using a Bodian developer for 18 minutes. The muscle was rinsed in distilled water, finely teased, and mounted using a glycoglyerol mounting gel.
The endplates were observed using Olympus BH series binocular microscope at a magnification of 100× using an oil immersion objective lens. A low light sensitive video camera mounted on top of the Olympus projected the slide onto a black and white monitor. A Bioquant image digitizer with a manual optic mouse was used to determine the following parameters: (1) endplate […], (2) endplate area, (3) endplate internal branching, and (4) muscle fiber diameter. The Bioquant statistical package was used to determine statistical differences, and the data are expressed as means and standard error of the mean. The Student's t-test and the ANOVA statistical tests were performed. […]

[2] = test system: sectioned sciatic nerve; common extensor muscle of the fingers; assay type: in vivo, rat; settings: for Muscle Tetnus: Fatigue / Muscle Tetnus: Muscle Strength / Muscle Tetnus: Muscle Strength Normalized to Muscle Weight / Muscle Tetnus: Speed of Contraction / Muscle Tetnus: Speed of Relaxation / Tetanic Strength/Single Pulse Strength: 35d. p.o.p.
crushed peroneal nerve = test: Walking test (locomotor pattern, toespread) after peroneal nerve crush; assay type: in vivo, rat
Procedure: as §1
Locomotor pattern was tested by measuring the walking pattern of the animal. The animal was allowed to walk up a 20° inclined platform. The track was well-lit by fluorescent tubes and a dark box was placed at the end of the track. This dark and light differences was used to entice the animal to walk up the track. […] The distance between the first and fifth digit was determined using a Manostat mechanical caliper (type 6911) with accuracy of ±0.005 mm0 The contralateral foot was used as a control to negate the size differences in individual animals. The Student T test was used to determine the statistical differences, and data were expressed as means of the six sharpest toespreads and the standard error of the mean (using 95% confidence formula), standard deviation, and variances.

[3] = test system: sciatic nerve after transection and end-to-end suture; test: Morphometry after section and suture of sciatic nerve; assay type: in vivo, rabbit
[4] = BIM 0.1 μG per animal every 48 hours, day 5, A = p < 0.025
[5] = BIM 0.1 μG per animal every 48 hours, day 5, A = p < 0.025, listed as BIM
[6] = BIM 1.0 μG per animal every 48 hours, day 5
[7] = BIM 5.0 μG per animal every 48 hours, day 5
[8] = BIM 10.0 μG per animal every 48 hours, day 5
[9] = Group 3 (topical in tissucol, lower dose)
[10] = Group 4 (s.c. 5ug.kg.day for 18 days)
[11] = 1 cm distal to the transection, 32 days p.op., 1 μg/kg per day s.c.
[12] = Region of the Transection, 32 days p.op., 1 μg/kg per day s.c.
[13] = Region of the Transection, 96 days p.op., 1 μg/kg per day s.c.

C[C@@H](N)C(=O)N[C@@H](CCC(N)=O)C(=O)N[C@@H](Cc1ccc(O)cc1)C(=O)N[C@@H](Cc1ccccc1)C(=O)N[C@@H](CCCNC(=N)N)C(=O)N[C@@H](Cc1c[nH]c2ccccc12)C(=O)NCC(N)=O [BIM-22015, D--Ala--Gln--Tyr--Phe--Arg--Trp--Gly--NH2] (H-[dA]QYFRWG-NH2)
Endplate Morphology: Muscle Fiber Diameter ([1]; BIM 0.1 μG per animal every 48 hours, day 5): 63.6(2.72)
Endplate Morphology: Internal Branching [1, 4]: significant increase
Endplate Morphology: Perimeter [1, 4]: significant increase
Endplate Morphology: Internal Branching [1, 5]: 260.5(39.2)
Endplate Morphology: Perimeter [1, 5]: 244.3(8.63)
Endplate Morphology: Internal Branching [1, 6]: 201.6(14.2)
Endplate Morphology: Perimeter [1, 6]: 231.7(5.22)
Endplate Morphology: Muscle Fiber Diameter ([1]; BIM 1.0 μG per animal every 48 hours, day 5, C = p < 0.005): high muscle hypertrophy
Endplate Morphology: Muscle Fiber Diameter ([1]; BIM 1.0 μG per animal every 48 hours, day 5, C = p < 0.005, listed as BIM): 76.9(1.70)
Endplate Morphology: Internal Branching [1, 7]: 220.2(18.7)
Endplate Morphology: Muscle Fiber Diameter [1, 7]: 74.2(2.35)
Endplate Morphology: Perimeter ([1]; BIM 5.0 μG per animal every 48 hours, day 5, B = p < 0.050): significant increase
Endplate Morphology: Perimeter ([1]; BIM 5.0 μG per animal every 48 hours, day 5, B = p < 0.050, listed as BIM): 204.2(5.98)
Endplate Morphology: Internal Branching [1, 8]: 173.2(14.6)
Endplate Morphology: Perimeter [1, 8]: 231.7(12.2)
Endplate Morphology: Muscle Fiber Diameter ([1]; BIM 10.0 μG per animal every 48 hours, day 5, C = p < 0.005): high muscle hypertrophy
Endplate Morphology: Muscle Fiber Diameter ([1]; BIM 10.0 μG per animal every 48 hours, day 5, C = p < 0.005, listed as BIM): 82.8(3.74)
Muscle Tetnus: Fatigue ([2]; Group 2 (topical in tissucol)): 73,80%
Muscle Tetnus: Muscle Strength ([2]; Group 2 (topical in tissucol)): 61,83 g
Muscle Tetnus: Muscle Strength Normalized to Muscle Weight ([2]; Group 2 (topical in tissucol)): 0,91 g/ug
Muscle Tetnus: Speed of Contraction ([2]; Group 2 (topical in tissucol)): 2409 g/ms
Muscle Tetnus: Speed of Relaxation ([2]; Group 2 (topical in tissucol)): 2034 g/ms
Tetanic Strength/Single Pulse Strength ([2]; Group 2 (topical in tissucol)): 307,50%
Muscle Tetnus: Fatigue [2, 9]: 75,55%
Muscle Tetnus: Muscle Strength [2, 9]: 51,55 g
Muscle Tetnus: Muscle Strength Normalized to Muscle Weight [2, 9]: 0,84 g/ug
Muscle Tetnus: Speed of Contraction [2, 9]: 1737 g/ms
Muscle Tetnus: Speed of Relaxation [2, 9]: 884 g/ms
Tetanic Strength/Single Pulse Strength [2, 9]: 343,00%
Muscle Tetnus: Fatigue [2, 10]: 72,12%
Muscle Tetnus: Speed of Contraction [2, 10]: 5507 g/ms
Muscle Tetnus: Speed of Relaxation [2, 10]: 4226 g/ms
Tetanic Strength/Single Pulse Strength [2, 10]: 347,12%
fatigability of the muscle ([2]; rat, in vivo): no effect
improvement of muscle strength over control group 1 (column 2, Table 3) ([2]; rat, in vivo, sc): 30%
recovery rate of locomotion (walking test) (crushed peroneal nerve; 0.1 μg per animal, once every 48 hours, days 3-5 after surgery, not statistically significant): very consistent upward recovery rate
optimal dosage (walking test) (crushed peroneal nerve; dosages 0.1-10.0 ug per animal compared): 0.1 µg
recovery rate of locomotion (walking test) (crushed peroneal nerve; the other dosages (above 0.1 μg) vs saline control): outperformed the saline control animal but only by a slight margin
light microscopic evaluation of semi-thin sections, control vs experimental groups ([3]; 0.5 μm sections after severance and end-to-end suture): did not disclose definite differences
growth of the myelin sheath in treated animals vs controls ([3]; 1 cm distal of the transection, period from the 32nd to the 96th day): almost twice as fast
Mean values of axon diameter [3, 11]: 1.545 μm
Mean values of myelin sheath thickness [3, 11]: 0.310 μm
Mean values of axon diameter ([3]; 1 cm distal to the transection, 96 days p.op., 1 μg/kg per day s.c.): 2.078 μm
Mean values of axon diameter [3, 12]: 1.888 μm
Mean values of myelin sheath thickness [3, 12]: 0.398 μm
Mean values of axon diameter [3, 13]: 2.335 μm
Mean values of myelin sheath thickness [3, 13]: 0.551 μm
Number of myelinated axons/0.004 sq. mm [3, 13]: 62 /0.004 sq. mm
statistically significant effect on the axon diameter ([3]; on the 32nd or on the 96th day p.op.): could not be demonstrated
